Structures can show the parent of a compound that is named as a salt. Where two headings read alike, the source gives them in different places. Each block holds one compound with its values, some of them ahead of it.
Key:
[1] = test system: ADP-induced platelet aggregation in human PRP; assay: Human platelet aggregation inhibition test; assay type: cell-based; conditions: ADP 1×10^−5 M
Method: Human Platelet Aggregation Inhibition Test
Blood collected from healthy human volunteers into aqueous trisodium citrate solution was centrifuged at 200×g for 10 minutes and the upper layer was recovered to obtain platelet-rich plasma (PRP). The residual blood containing trisodium citrate added therein was centrifuged at 1500×g for 10 minutes and the supernatant was collected as platelet-poor plasma (PPP). The number of platelets in the PRP was adjusted to about 300,000/μl by PPP. Platelet aggregation was measured by an aggregometer. 180 μl of PRP was added to cuvettes and incubated at 37° C. for one minute, and then 10 μl of test compound solution (prepared by dissolving a test compound with a 1.5-fold mole of a sodium hydroxide solution and diluting with water) was added and the mixture was further incubated for 2 minutes. Then, 10 μl of aqueous adenosine diphosphate (ADP) solution was added to adjust the final concentration as 1×10^−5 M and platelet aggregation was induced and observed for 7 minutes. Inhibition percentage of aggregation was calculated from the percentage of aggregation upon the addition of the test compound to the percentage of aggregation upon the addition of water in place of the test compound solution (control).

[2] = test system: ADP-induced platelet aggregation in monkey PRP; assay: Ex vivo platelet aggregation inhibition test in monkeys; design: species or system cynomolgus monkeys (Macaca fascicularis); conditions: for inhibition at 0.3 mg/kg / inhibition at 1 mg/kg: Macaca fascicularis, Platelet, read-out: Inhibition percentage of platelet aggregation in monkeys; for inhibition at 0.3 mg/kg: oral 0.3 mg/kg; for inhibition at 1 mg/kg: oral 1 mg/kg
Method: Ex Vivo Platelet Aggregation Inhibition Test in Monkeys
The compound of Example 84 was orally administered to two cynomolgus monkeys (Macaca fascicularis, male, aged 3 to 5) at a dose of 0.3 or 1 mg/kg. Before the administration or 2, 4 and 8 hours after the administration, blood (each 4.5 ml) was collected using an injection cylinder containing aqueous 3.8% citric acid solution in the amount of 1/10 of the volume of blood to be collected. Blood containing citric acid solution was centrifuged at 200×g for 10 minutes and the upper layer was collected as PRP. Furthermore, the residual blood was centrifuged at 1500×g for 10 minutes and the supernatant was collected as PPP. 190 μl of PRP was added to a cuvette and incubated at 37° C. for one minute, and then 10 μl of ADP solution (5 to 30 μM) was added to induce platelet aggregation. The percentage of platelet aggregation was measured by an aggregometer (PM8C, Mebanix, Tokyo) using PPP as the blank and inhibition percentage of platelet aggregation was determined by comparing the percentage of aggregation before administration of the compound with the percentage of aggregation after administration of the compound according to the following equation. Inhibition percentage of Platelet Aggregation (%)=100−(The percentage of Aggregation after administration of compound)/(The percentage of Aggregation before administration of compound)×100

SMILES: O=C(O)COCCCC1CCCN1c1cnc(-c2ccccc2)c(-c2ccccc2)n1 (racemic) [Example 55, (±)-2-{3-[1-(5,6-diphenylpyrazin-2-yl)pyrrolidin-2-yl]propyloxy}acetic acid]
melting point: 137 to 139 °C

SMILES: O=C(O)COCCCCC1CCCN1c1cnc(-c2ccccc2)c(-c2ccccc2)n1 (racemic) [Example 57, (±)-2-{4-[1-(5,6-diphenylpyrazin-2-yl)pyrrolidin-2-yl]butyloxy}acetic acid]
melting point: 138 to 140 °C

SMILES: O=C(O)COCCCCN(c1cnc(-c2ccccc2)c(-c2ccccc2)n1)C1CCCC1 [Example 43, 2-{4-[N-(5,6-diphenylpyrazin-2-yl)-N-cyclopentylamino]butyloxy}acetic acid]
melting point: 101 to 103 °C

SMILES: O=C(O)COCCCCN(c1cnc(-c2ccccc2)c(-c2ccccc2)n1)C1CCCCC1 [Example 44, 2-{4-[N-(5,6-diphenylpyrazin-2-yl)-N-cyclohexylamino]butyloxy}acetic acid]
melting point: 130 to 131 °C

SMILES: Cc1ccc(-c2ncc(N(CCCCOCC(=O)O)C(C)C)nc2-c2ccc(C)cc2)cc1 [Example 45, 2-{4-[N-(5,6-di-p-tolylpyrazin-2-yl)-N-isopropylamino]butyloxy}acetic acid]
melting point: 155 to 156 °C

SMILES: CN(CCCCOCC(=O)O)c1ccc(-c2ccccc2)c(-c2ccccc2)n1 [Example 46, 2-{4-[N-(5,6-diphenylpyridin-2-yl)-N-methylamino]butyloxy}acetic acid sodium salt]
IC50 [1]: 500 nM

SMILES: COc1ccc(-c2ncc(N(C)CCCCOCC(=O)O)nc2-c2ccc(OC)cc2)cc1 [Example 51, 2-[4-{N-[5,6-bis(4-methoxyphenyl)pyrazin-2-yl]-N-methylamino}butyloxy]acetic acid]
melting point: 128 to 130 °C

SMILES: O=C(O)COCCC1CCN(c2cnc(-c3ccccc3)c(-c3ccccc3)n2)CC1 [Example 54, 2-{2-[1-(5,6-diphenylpyrazin-2-yl)piperidin-4-yl]ethoxy}acetic acid]
melting point: 173 to 174 °C

SMILES: CN(CCCCOCC(=O)O)c1nnc(-c2ccccc2)c(-c2ccccc2)n1 [Example 56, 2-{4-[N-(5,6-diphenyl-1,2,4-triazin-3-yl)-N-methylamino]butyloxy}acetic acid]
melting point: 108 to 110 °C

SMILES: CN(C[C@H](O)c1cccc(OCC(=O)O)c1)c1cnc(-c2ccccc2)c(-c2ccccc2)n1 [Example 59, (R)-(+)-2-[3-{2-[N-(5,6-diphenylpyrazin-2-yl)-N-methylamino]-1-hydroxyethyl}phenoxy]acetic acid]
melting point: 158 to 159 °C

SMILES: CN(c1cnc(-c2ccccc2)c(-c2ccccc2)n1)C1CCc2c(OCC(=O)O)cccc21 (stereo not drawn) [Example 62, 4-(carboxymethoxy)-1-[N-(5,6-diphenylpyrazin-2-yl)-N-methylamino]indane]
melting point: 182 to 184 °C

SMILES: CN(CCCCCC(=O)O)c1cnc(-c2ccccc2)c(-c2ccccc2)n1 [Example 68, 6-[N-(5,6-diphenylpyrazin-2-yl)-N-methylamino]hexanoic acid]
melting point: 159 to 160 °C

SMILES: CN(C/C=C\COCC(=O)O)c1cnc(-c2ccccc2)c(-c2ccccc2)n1 [Example 71, 2-{4-[N-(5,6-diphenylpyrazin-2-yl)-N-methylamino]-(Z)-2-buten-1-yloxy]acetic acid]
melting point: 148 to 150 °C

SMILES: CN(C/C=C/COCC(=O)O)c1cnc(-c2ccccc2)c(-c2ccccc2)n1 [Example 72, 2-{4-[N-(5,6-diphenylpyrazin-2-yl)-N-methylamino]-(E)-2-buten-1-yloxy]acetic acid]
melting point: 128 to 130 °C

SMILES: CN(CCCCOCC(=O)O)c1ncc(-c2ccccc2)c(-c2ccccc2)n1 [Example 74, 2-{4-[N-(4,5-diphenylpyrimidin-2-yl)-N-methylamino]butyloxy}acetic acid]
IC50 [1]: 800 nM

SMILES: CN(CC1CCc2c(cccc2OCC(=O)O)C1)c1cnc(-c2ccccc2)c(-c2ccccc2)n1 (stereo not drawn) [Example 77, 5-(carboxymethoxy)-2-{[N-(5,6-diphenylpyrazin-2-yl)-N-methylamino]methyl}-1,2,3,4-tetrahydronaphthalene]
melting point: 212 to 213 °C

SMILES: CC(C)N(CCCC[S+]([O-])CC(=O)O)c1cnc(-c2ccccc2)c(-c2ccccc2)n1 (stereo not drawn) [Example 79, 2-{4-[N-(5,6-diphenylpyrazin-2-yl)-N-isopropylamino]butylsulfinyl}acetic acid]
melting point: 117 to 120 °C (dec.)

SMILES: O=C(O)COCCCCS(=O)(=O)c1cnc(-c2ccccc2)c(-c2ccccc2)n1 [Example 82, 2-[4-(5,6-diphenylpyrazin-2-sulfonyl)butyloxy]acetic acid]
melting point: 123 to 125 °C

SMILES: CC(C)N(CCCCOCC(=O)NS(C)(=O)=O)c1cnc(-c2ccccc2)c(-c2ccccc2)n1 [Example 84, 2-{4-[N-(5,6-diphenylpyrazin-2-yl)-N-isopropylamino]butyloxy}-N-(methylsulfonyl)acetamide]
inhibition at 0.3 mg/kg ([2]; 2 h after administration): 28%
inhibition at 0.3 mg/kg ([2]; 4 h after administration): 34%
inhibition at 0.3 mg/kg ([2]; 8 h after administration): 19%
inhibition at 1 mg/kg ([2]; 2 h after administration): 63%
inhibition at 1 mg/kg ([2]; 4 h after administration): 40%
inhibition at 1 mg/kg ([2]; 8 h after administration): 52%
ex vivo platelet aggregation inhibition (in words) ([2]; oral 0.3 or 1 mg/kg, 2 to 8 hours after administration): inhibits platelet aggregation persistently in a dose-dependent manner

Continued, values first:

melting point: 139 to 140 °C
SMILES: O=C(O)COCCC1CCCN(c2cnc(-c3ccccc3)c(-c3ccccc3)n2)C1 (racemic) [Example 58, (±)-2-{2-[1-(5,6-diphenylpyrazin-2-yl)piperidin-3-yl]ethoxy}acetic acid]

melting point: 136 to 138 °C
SMILES: CC(C)N(CCCCOCC(=O)O)c1nc(-c2ccccc2)c(-c2ccccc2)nc1Cl [Example 47, 2-{4-[N-(3-chloro-5,6-diphenylpyrazin-2-yl)-N-isopropylamino]butyloxy}acetic acid]

melting point: 128 to 130 °C
SMILES: CC(C)N(CCCCOCC(=O)O)c1nnc(-c2ccccc2)c(-c2ccccc2)n1 [Example 49, 2-{4-[N-(5,6-diphenyl-1,2,4-triazin-3-yl)-N-isopropylamino]butyloxy}acetic acid]

melting point: 161 to 162 °C
SMILES: Cc1ccc(-c2ncc(N(C)CCCCOCC(=O)O)nc2-c2ccc(C)cc2)cc1 [Example 50, 2-{4-[N-(5,6-di-p-tolylpyrazin-2-yl)-N-methylamino]butyloxy}acetic acid]

melting point: 116 to 118 °C
SMILES: CN(CCCCOCC(=O)O)c1cnc(-c2ccc(F)cc2)c(-c2ccc(F)cc2)n1 [Example 52, 2-[4-{N-[5,6-bis(4-fluorophenyl)pyrazin-2-yl]-N-methylamino}butyloxy]acetic acid]

melting point: 174 to 176 °C
SMILES: CN(CCc1cccc(OCC(=O)O)c1)c1cnc(-c2ccccc2)c(-c2ccccc2)n1 [Example 61, 2-[3-{2-[N-(5,6-diphenylpyrazin-2-yl)-N-methylamino]ethyl}phenoxy]acetic acid]

melting point: 114 to 118 °C
SMILES: CN(CCCCCCC(=O)O)c1cnc(-c2ccccc2)c(-c2ccccc2)n1 [Example 65, 7-[N-(5,6-diphenylpyrazin-2-yl)-N-methylamino]heptanoic acid]

melting point: 116 to 117 °C
SMILES: CN(CCCCCCCC(=O)O)c1cnc(-c2ccccc2)c(-c2ccccc2)n1 [Example 66, 8-[N-(5,6-diphenylpyrazin-2-yl)-N-methylamino]octanoic acid]

melting point: 103 to 105 °C
SMILES: CN(CCCCCCCCC(=O)O)c1cnc(-c2ccccc2)c(-c2ccccc2)n1 [Example 67, 9-[N-(5,6-diphenylpyrazin-2-yl)-N-methylamino]nonanoic acid]

melting point: 86 to 88 °C
SMILES: O=C(O)COCCCCSc1cnc(-c2ccccc2)c(-c2ccccc2)n1 [Example 76, 2-{4-[(5,6-diphenylpyrazin-2-yl)thio]butyloxy}acetic acid]

melting point: 183 to 185 °C
SMILES: CC(C)N(CCCCS(=O)(=O)CC(=O)O)c1cnc(-c2ccccc2)c(-c2ccccc2)n1 [Example 80, 2-{4-[N-(5,6-diphenylpyrazin-2-yl)-N-isopropylamino]butylsulfonyl}acetic acid]
